Source: US20090137661A1, “PLANT DERIVED COMPOUNDS AND COMPOUND FORMULAE CONTAINING THE SAME FOR THE TREATMENT OF CERVICAL CANCER” (priority 2007, published 2009)
In brackets after ≈: the same amount, converted by molar mass. Like-named read-outs stand apart in the source and are kept apart here.

Tests used:
HeLa cells = assay: Cytotoxicity assay (MTT assay) on HeLa cells; details: for IC50: Homo sapiens, HeLa
Method: HeLa cell line was obtained from Dr. S. S. Shen (Biomedical Engineering Research Laboratories of Industrial Technology Research Institute of Taiwan). HeLa cells are adherent cells and were propagated and maintained in Dulbecco's modified Eagle's medium (DMEM) supplemented with 10% fetal bovine serum (FBS), […] sodium bicarbonate (NaHCO3), 1 mM sodium pyruvate, and 0.1 mM non-essential amino acid.
(§1) Cytotoxicity Assay (MTT Assay)
The cytotoxicity of the compounds set forth herein to HeLa cells and HUVEC cells were determined by the MTT assay. The HUVEC cells were used to understand the cytotoxicity of said compounds to normal human cells. Besides, doxorubicin HCl was used as a comparative example so as to investigate the efficacy of the compounds according to the embodiments of the present invention.
Briefly, the MTT assay comprises the following steps: • (A) Cells were seeded in 96-well plates 3 hours before treatment, wherein the density of HeLa cell is 1×10^4 cells per well and the density of HUVEC cell is 2×10^4 cells per well; • (B) Cells were then treated with various concentrations of tested samples and incubated for a predetermined period (24, 48, and 72 hours); • (C) After the predetermined periods expired, the tested samples were removed and 100 μl MTT reagent (1 mg/ml) was added to each well; • (D) The plates were incubated at 37° C. with 5% of CO2 for 5 hours; • (E) The MTT reagent was removed and 100 μl DMSO was added to each well; • (F) The optical density (O.D.) of each well was determined by ELISA reader at a wavelength of 560 nm.
Each experiment was repeated for 3 times and the result shown in the tables herein were the mean value of the 3 repetitions. The O.D. of the vehicle control and experimental groups were recorded. The cell survival rate of each sample was calculated as follows:
Cell survival rate(%)=O.D.control/O.D.experimental*100%
Then, the cell survival rate was plotted against the compound concentration and the IC50 value of each compound was calculated by the GraFit data analysis software (Erithacus Software Ltd.).

HUVEC cells = assay: Cytotoxicity assay (MTT assay) on HUVEC cells; type: cell-based, human; details: for IC50: Homo sapiens
Source text: Human umbilical vein endothelial cells (HUVEC) were purchased from Food Industry Research and Development Institute in Hsin-Chu City, Taiwan. HUVEC cells were propagated and maintained in Medium 199 supplemented with 10% FBS, Heparin, and […].
as §1

[1] = 24 h, read-out: IC50 at 24 hours, HeLa
[2] = 48 h, read-out: IC50 at 48 hours, HeLa
[3] = 72 h, read-out: IC50 at 72 hours, HeLa
[4] = HUVEC cells, 24 hours, read-out: IC50 at 24 hours, HUVEC
[5] = HUVEC cells, 48 hours, read-out: IC50 at 48 hours, HUVEC
[6] = HUVEC cells, 72 hours, read-out: IC50 at 72 hours, HUVEC

Compound	HeLa Cell Survival Rate (HeLa cells; 0.1 μg/ml, 24 hrs) [%]	HeLa Cell Survival Rate (HeLa cells; 0.1 μg/ml, 48 hrs) [%]	HeLa Cell Survival Rate (HeLa cells; 0.1 μg/ml, 72 hrs) [%]	HeLa Cell Survival Rate (HeLa cells; 1 μg/ml, 24 hrs) [%]	HeLa Cell Survival Rate (HeLa cells; 1 μg/ml, 48 hrs) [%]	HeLa Cell Survival Rate (HeLa cells; 1 μg/ml, 72 hrs) [%]	HeLa Cell Survival Rate (HeLa cells; 10 μg/ml, 24 hrs) [%]	HeLa Cell Survival Rate (HeLa cells; 10 μg/ml, 48 hrs) [%]	HeLa Cell Survival Rate (HeLa cells; 10 μg/ml, 72 hrs) [%]	HeLa Cell Survival Rate (HeLa cells; 100 μg/ml, 24 hrs) [%]	HeLa Cell Survival Rate (HeLa cells; 100 μg/ml, 48 hrs) [%]	HeLa Cell Survival Rate (HeLa cells; 100 μg/ml, 72 hrs) [%]	HUVEC/HeLa ratio of IC50 (HeLa cells; 24 hours)	HUVEC/HeLa ratio of IC50 (HeLa cells; 48 hours)	HUVEC/HeLa ratio of IC50 (HeLa cells; 72 hours)	HUVEC Cell Survival Rate (HUVEC cells; 10 μg/ml, 48 hrs) [%]	HUVEC Cell Survival Rate (HUVEC cells; 10 μg/ml, 72 hrs) [%]	HUVEC Cell Survival Rate (HUVEC cells; 100 μg/ml, 24 hrs) [%]	HUVEC Cell Survival Rate (HUVEC cells; 100 μg/ml, 48 hrs) [%]	HUVEC Cell Survival Rate (HUVEC cells; 100 μg/ml, 72 hrs) [%]	other results
COc1ccc2cc3[n+](cc2c1OC)CCc1cc2c(cc1-3)OCO2.[Cl-] [Compound H, berberine hydrochloride]	89	98	98	87	84	91	82	71	62	28	17	10	0.8	0.7	0.6	64	51	23	16	15	cytotoxicity to HeLa cells compared with Doxorubicin HCl (HeLa cells): higher cytotoxicity; IC50 at 24 hours, HeLa (HeLa cells; HeLa cells, 24 hours): 39 µg/mL; IC50 at 72 hours, HeLa (HeLa cells; HeLa cells, 72 hours): 15 µg/mL; IC50 for inhibiting HeLa cells as restated in text (HeLa cells; values taken from tables 4 and 5 (48 hours), unit inferred): 21 µg/mL; HUVEC Cell Survival Rate (HUVEC cells; 1 μg/ml, 24 hrs): 89%; HUVEC Cell Survival Rate (HUVEC cells; 1 μg/ml, 48 hrs): 81%; HUVEC Cell Survival Rate (HUVEC cells; 1 μg/ml, 72 hrs): 77%; HUVEC Cell Survival Rate (HUVEC cells; 10 μg/ml, 24 hrs): 76%; IC50 at 24 hours, HUVEC (HUVEC cells; HUVEC cells, 24 hours): 30 µg/mL; IC50 at 48 hours, HUVEC (HUVEC cells; HUVEC cells, 48 hours): 15 µg/mL; IC50 at 72 hours, HUVEC (HUVEC cells; HUVEC cells, 72 hours): 9 µg/mL
Cc1cc2c(C(C)C)c(O)c(O)c(C=O)c2c(O)c1-c1c(C)cc2c(C(C)C)c(O)c(O)c(C=O)c2c1O [Compound F, gossypol-acetic acid]	101	103	98	97	105	98	80	52	40	17	13	10	1.0	2.8	2.9	85	71	20	17	17	IC50 (HeLa cells; [1]): 29 µg/mL (≈ 55.9 µM); IC50 (HeLa cells; [2]): 12 µg/mL (≈ 23.1 µM); IC50 (HeLa cells; [3]): 8 µg/mL (≈ 15.4 µM); cytotoxicity to HeLa cells compared with Doxorubicin HCl (HeLa cells; under the corresponding conditions): higher cytotoxicity; HUVEC Cell Survival Rate (HUVEC cells; 0.1 μg/ml, 24 hrs): 93%; HUVEC Cell Survival Rate (HUVEC cells; 0.1 μg/ml, 48 hrs): 104%; HUVEC Cell Survival Rate (HUVEC cells; 0.1 μg/ml, 72 hrs): 103%; HUVEC Cell Survival Rate (HUVEC cells; 1 μg/ml, 24 hrs): 88%; HUVEC Cell Survival Rate (HUVEC cells; 1 μg/ml, 48 hrs): 104%; HUVEC Cell Survival Rate (HUVEC cells; 1 μg/ml, 72 hrs): 98%; HUVEC Cell Survival Rate (HUVEC cells; 10 μg/ml, 24 hrs): 80%; IC50 (HUVEC cells; [4]): 30 µg/mL (≈ 57.9 µM); IC50 (HUVEC cells; [5]): 33 µg/mL (≈ 63.6 µM); IC50 (HUVEC cells; [6]): 23 µg/mL (≈ 44.4 µM)
O=c1c(O)c(-c2ccc(O)c(O)c2)oc2cc(O)cc(O)c12 [Compound E, quercetin]	93	–	–	–	–	91	83	51	33	–	32	12	–	–	–	87	80	120	51	26	IC50 (HeLa cells; [1]): > 100 µg/mL; IC50 (HeLa cells; [2]): 20 µg/mL (≈ 66.2 µM); IC50 (HeLa cells; [3]): 6 µg/mL (≈ 19.9 µM); IC50 (HUVEC cells; [4]): > 100 µg/mL; IC50 (HUVEC cells; [5]): 104 µg/mL (≈ 344 µM); IC50 (HUVEC cells; [6]): 36 µg/mL (≈ 119 µM)
